Test results taken from ChEMBL document CHEMBL1177695, “Discovery and development of natural product-derived chemotherapeutic agents based on a medicinal chemistry approach” (J Nat Prod, 2010).
≈ marks a conversion by molar mass, not a printed value.

Key:
KB [1] = assay: Cytotoxicity against human etoposide-resistant KB cells after 72 hrs by MTT assay
[2] = Cytotoxicity against human KB1 cells after 72 hrs by MTT assay; format: functional, cell-based; conditions: KB1, 72 h
[3] = Cytotoxicity against human KB-7d cells after 72 hrs by MTT assay; format: functional, cell-based; conditions: KB7D; for EC50: read-out: ED50 (the source's name)
KB [4] = assay: Cytotoxicity against human KB cells after 72 hrs by MTT assay; format: functional, cell-based; conditions: for EC50: read-out: ED50 (the source's name)
[5] = Cytotoxicity against human H9 cells after 4 days by coulter counter; format: cell-based; conditions: human, H9 cells; read-out: TI
[6] = test system: Human immunodeficiency virus 1; assay: Antiviral activity against HIV1 3B infected in H9 cells assessed as inhibition of viral replication by p24 antigen ELISA; format: functional, organism-based
[7] = Therapeutic index, ratio of IC50 for human H9 cells to EC50 for HIV 3B; format: cell-based; conditions: read-out: TI
[8] = Inhibition of tubulin polymerization
[9] = Cytotoxicity against human KBVIN cells after 3 days by sulforhodamine B assay; format: functional, cell-based; conditions: 72 h
A549 = assay: Cytotoxicity against human A549 cells after 3 days by sulforhodamine B assay; format: functional, cell-based; conditions: A549, 72 h
A-431 = assay: Cytotoxicity against human A431 cells after 3 days by sulforhodamine B assay; format: functional, cell-based; conditions: A-431, 72 h
KB [10] = assay: Cytotoxicity against human KB cells after 3 days by sulforhodamine B assay; format: functional, cell-based; conditions: 72 h
1A9 = assay: Cytotoxicity against human 1A9 cells after 3 days by sulforhodamine B assay; format: functional, cell-based; conditions: 1A9, 72 h
HCT-8 = assay: Cytotoxicity against human HCT8 cells after 3 days by sulforhodamine B assay; format: functional, cell-based; conditions: HCT-8, 72 h
PC-3 = assay: Cytotoxicity against human PC3 cells after 3 days by sulforhodamine B assay; format: functional, cell-based; conditions: PC-3, 72 h
[11] = Human immunodeficiency virus 1, 3B, H9, read-out: EC50

COC(=O)c1ccc(N[C@@H]2c3cc4c(cc3[C@@H](c3cc(OC)c(O)c(OC)c3)[C@H]3C(=O)OC[C@@H]32)OCO4)cc1
IC50 (KB [1]): 3300 nM | IC50 [2]: 2500 nM | IC50 [3]: 7000 nM | IC50 (KB [4]): 840 nM

COc1cc([C@@H]2c3cc4c(cc3[C@@H](Nc3ccc(C(=O)N[C@@H](C)C(=O)OCc5ccccc5)cc3)[C@H]3COC(=O)[C@H]23)OCO4)cc(OC)c1O
EC50 [3]: 0.25 µg/mL | EC50 (KB [4]): 0.5 µg/mL

Cc1cc2c(c3oc(=O)ccc13)[C@@H](OC(=O)C13CCC(C)(C(=O)O1)C3(C)C)[C@@H](OC(=O)C13CCC(C)(C(=O)O1)C3(C)C)C(C)(C)O2 (some centres undefined)
selectivity ratio at 96 h [5]: > 16 | EC50 [6, 11]: 8 nM

COC(=O)C[C@@H]1C(=O)CC[C@H](C)C(=O)O[C@@H]2[C@@H]3[C@@H](OC(C)=O)[C@@]45O[C@@]3(C)COC(=O)c3cnccc3[C@@H](C)[C@@H](O)C(=O)O[C@@H]([C@H](OC(C)=O)[C@H](OC(C)=O)[C@@]4(COC1=O)[C@@H]2OC(C)=O)[C@]5(C)O [TRIPTONINE B]
selectivity ratio [7]: > 1000

COc1cc2c(c(OC)c1OC)-c1ccc(SC)c(=O)cc1[C@@H](OC(=O)Oc1ccncc1)CC2
IC50 [8]: 560 nM

COc1cc2c(c(OC)c1OC)-c1c(cc3c(c1OC)OCO3)[C@H](OC(=O)c1ccccc1)[C@@](C)(O)[C@@H](C)C2 [GOMISIN G]
selectivity ratio [7]: 600 | EC50 [6, 11]: 11 nM

COc1cc(=O)oc2c3c(ccc12)OC(C)(C)[C@H](OC(=O)C12CCC(C)(C(=O)O1)C2(C)C)[C@@H]3OC(=O)C12CCC(C)(C(=O)O1)C2(C)C (some centres undefined)
selectivity ratio at 96 h [5]: > 15 | EC50 [6, 11]: 50 nM

C[C@@H]1C[C@H](O)[C@H](O)[C@@H](O[C@H]2CC[C@]3(C=O)[C@H]4CC[C@]5(C)[C@@H](c6ccc(=O)oc6)CC[C@]5(O)[C@@H]4CC[C@]3(O)C2)O1 [KALANCHOSIDE C]
IC50 [9]: 0.026 µg/mL (≈ 0.0476 µM) | IC50 (A549): 0.006 µg/mL (≈ 0.011 µM) | IC50 (A-431): 0.055 µg/mL (≈ 0.101 µM) | IC50 (KB [10]): 0.016 µg/mL (≈ 0.0293 µM) | IC50 (1A9): 0.012 µg/mL (≈ 0.022 µM) | IC50 (HCT-8): 0.045 µg/mL (≈ 0.0823 µM) | IC50 (PC-3): 0.025 µg/mL (≈ 0.0457 µM)

COc1cc2ccc(=O)oc2c2c1OC(C)(C)[C@H](OC(=O)C13CCC(C)(C(=O)O1)C3(C)C)[C@@H]2OC(=O)C12CCC(C)(C(=O)O1)C2(C)C (some centres undefined)
EC50 ([6]; h9): Not Active

CCC1=C(O)c2c(oc(-c3cccc4ccccc34)cc2=O)C(CC)(CC)C1=O [2-(NAPHTHALEN-1-YL)-6,8,8-TRIETHYL DESMOSDUMOTIN B]
EC50 [9]: 0.2 µg/mL (≈ 0.515 µM) | EC50 (A549): 0.2 µg/mL (≈ 0.515 µM) | EC50 (A-431): 0.2 µg/mL (≈ 0.515 µM) | EC50 (KB [10]): 0.2 µg/mL (≈ 0.515 µM) | EC50 (1A9): 0.2 µg/mL (≈ 0.515 µM) | EC50 (HCT-8): 0.2 µg/mL (≈ 0.515 µM) | EC50 (PC-3): 0.2 µg/mL (≈ 0.515 µM)

COc1c(C)c(O)c(C(=O)/C=C(\O)c2ccccc2)c(O)c1C=O
selectivity ratio [7]: 489 | EC50 [6, 11]: 67 nM

Cc1cc(=O)oc2c3c(ccc12)OC(C)(C)[C@H](OC(=O)C12CCC(C)(C(=O)O1)C2(C)C)[C@@H]3OC(=O)C12CCC(C)(C(=O)O1)C2(C)C (some centres undefined)
selectivity ratio at 96 h [5]: > 39 | EC50 [6, 11]: 6 nM

CC(C)=CCC/C(C)=C/CC[C@@]1(C)C=Cc2c(cc(C)c(C(=O)O)c2O)O1 [DAURICHROMENIC ACID]
selectivity ratio [7]: 3710 | EC50 [6, 11]: 15 nM

Cc1cc2ccc(=O)oc2c2c1OC(C)(C)[C@H](OC(=O)C13CCC(C)(C(=O)O1)C3(C)C)[C@@H]2OC(=O)C12CCC(C)(C(=O)O1)C2(C)C (some centres undefined)
selectivity ratio at 96 h [5]: > 16 | EC50 [6, 11]: 210 nM

CC1(C)Oc2ccc3ccc(=O)oc3c2[C@@H](OC(=O)C23CCC(C)(C(=O)O2)C3(C)C)[C@H]1OC(=O)C12CCC(C)(C(=O)O1)C2(C)C (some centres undefined)
selectivity ratio at 96 h [5]: > 16.1 | EC50 [6, 11]: 50 nM

OC[C@@H](O)C[C@H]1OCC2(O)c3c(cc(O)c4c3O[C@@H](c3cc(O)c(O)c(O)c3)[C@@H](O)C4)OC12O (some centres undefined)
selectivity ratio [7]: 9.5 | EC50 [6, 11]: 4000 nM

COc1cc([C@@H]2c3cc4c(cc3[C@@H](Nc3ccc(F)cc3)[C@H]3COC(=O)[C@H]23)OCO4)cc(OC)c1O
IC50 (KB [1]): 7200 nM | IC50 [2]: 4000 nM | IC50 [3]: 8300 nM | IC50 (KB [4]): 670 nM

COc1cc([C@@H]2c3cc4c(cc3[C@@H](Nc3ccc(N)cc3)[C@H]3COC(=O)[C@H]23)OCO4)cc(OC)c1O
IC50 (KB [1]): 2000 nM | IC50 [2]: 3500 nM | IC50 [3]: 7600 nM | IC50 (KB [4]): 590 nM

Cc1c(CBr)c(=O)oc2c3c(ccc12)OC(C)(C)[C@H](OC(=O)C12CCC(C)(C(=O)O1)C2(C)C)[C@@H]3OC(=O)C12CCC(C)(C(=O)O1)C2(C)C (some centres undefined)
selectivity ratio [7]: 186000 | EC50 [6, 11]: 0.11 nM

CC(=O)O[C@@H]1[C@H](OC(=O)CC(C)C)c2c(ccc3ccc(=O)oc23)OC1(C)C [SUKSDORFIN]
selectivity ratio [7]: 40 | EC50 [6, 11]: 1300 nM

Cc1cn([C@H]2C[C@H](N=[N+]=[N-])[C@@H](CO)O2)c(=O)[nH]c1=O [ZIDOVUDINE]
EC50 [6, 11]: 44 nM

O=C(C[C@H](Cc1ccc(O)c(O)c1)C(=O)O)C1=Cc2cc(O)c(O)cc2[C@H](c2ccc(O)c(O)c2)[C@H]1CC[C@H](Cc1ccc(O)c(O)c1)C(=O)O
selectivity ratio [7]: 33.3 | EC50 [6, 11]: 1900 nM

COc1cc([C@@H]2c3cc4c(cc3[C@@H](O[C@@H]3O[C@@H]5CO[C@@H](C)O[C@H]5[C@H](O)[C@H]3O)[C@H]3COC(=O)[C@H]23)OCO4)cc(OC)c1O [ETOPOSIDE]
IC50 (KB [1]): 28700 nM | IC50 [2]: 34800 nM | IC50 [3]: 77500 nM | EC50 [3]: 25000 nM | IC50 (KB [4]): 600 nM | EC50 (KB [4]): 200 nM

O=c1cc(-c2ccccc2F)[nH]c2ccc(N3CCCC3)cc12
IC50 [8]: 460 nM

C[C@]12CCC[C@]3(C(=O)OC1)[C@@H]2CC[C@@]12C[C@@H](CC[C@H]13)[C@](C)(O)C2 [NEOTRIPTERIFORDIN]
selectivity ratio [7]: 125 | EC50 [6, 11]: 25 nM

COc1cc2c(c3oc(=O)ccc13)[C@@H](OC(=O)C13CCC(C)(C(=O)O1)C3(C)C)[C@@H](OC(=O)C13CCC(C)(C(=O)O1)C3(C)C)C(C)(C)O2 (some centres undefined)
selectivity ratio at 96 h [5]: > 15 | EC50 [6, 11]: 44 nM

COc1cc([C@@H]2c3cc4c(cc3[C@@H](Nc3ccc(NC(=O)c5cc([N+](=O)[O-])cn5C)cc3)[C@H]3COC(=O)[C@H]23)OCO4)cc(OC)c1O
EC50 [3]: 200 nM | EC50 (KB [4]): 40 nM

COc1cc2ccc3c(c2oc1=O)[C@@H](OC(=O)C12CCC(C)(C(=O)O1)C2(C)C)[C@@H](OC(=O)C12CCC(C)(C(=O)O1)C2(C)C)C(C)(C)O3 (some centres undefined)
selectivity ratio at 96 h [5]: > 15 | EC50 [6, 11]: 30 nM

COc1cc2c(cc1O)[C@@H](Cc1ccc(O)cc1)NCC2
selectivity ratio [7]: 125 | EC50 [6, 11]: 2800 nM

Cc1cc2ccc3c(c2oc1=O)[C@@H](OC(=O)C12CCC(C)(C(=O)O1)C2(C)C)[C@@H](OC(=O)C12CCC(C)(C(=O)O1)C2(C)C)C(C)(C)O3 (some centres undefined)
EC50 ([6]; h9): Not Active

COc1cc([C@@H]2c3cc4c(cc3[C@@H](NC3=CCC5(C=C3)OCCO5)[C@H]3COC(=O)[C@H]23)OCO4)cc(OC)c1O
IC50 (KB [1]): 1600 nM | IC50 [2]: 500 nM | IC50 [3]: 1000 nM | IC50 (KB [4]): 680 nM

COc1cc([C@@H]2c3cc4c(cc3[C@@H](Nc3ccc([N+](=O)[O-])cc3)[C@H]3COC(=O)[C@H]23)OCO4)cc(OC)c1O
IC50 (KB [1]): 3000 nM | IC50 [2]: 6100 nM | IC50 [3]: 7700 nM | EC50 [3]: 2 µg/mL | IC50 (KB [4]): 490 nM | EC50 (KB [4]): 0.2 µg/mL

COc1cc2c(c(OC)c1OC)-c1ccc(SC)c(=O)cc1C(=O)CC2 [THIOCOLCHICONE]
IC50 [8]: 760 nM

COc1cc2c(c(OC)c1OC)-c1ccc(SC)cc1C(=O)CC2
IC50 [8]: 500 nM

CC1(C)C=C2[C@H]3CC[C@@H]4[C@@]5(C)CCC(=O)C(C)(C)[C@@H]5CC[C@@]4(C)[C@]3(C)CC[C@@]2(C(=O)O)CC1 [MORONIC ACID]
selectivity ratio [7]: > 186 | EC50 [6, 11]: < 220 nM

COc1cc([C@@H]2c3cc4c(cc3[C@@H](Nc3ccc(C#N)cc3)[C@H]3COC(=O)[C@H]23)OCO4)cc(OC)c1O
IC50 (KB [1]): 4000 nM | IC50 [2]: 2700 nM | IC50 [3]: 5000 nM | IC50 (KB [4]): 610 nM

CC(C)(O)[C@H](O)COc1c2occc2cc2ccc(=O)oc12 [HERACLENOL]
selectivity ratio [7]: 870 | EC50 [6, 11]: 380 nM
